In US9107926B2, “Mutant selectivity and combinations of a phosphoinositide 3-kinase inhibitor compound and chemotherapeutic agents for the treatment of cancer” (Genentech, Inc., priority 2012, dated 2015):

Columns and labels:
888-MEL = experiment: CellTiter-Glo cell proliferation assay; assay type: cell-based; details: Homo sapiens, Melanoma, B-Raf
HT-29 = experiment: CellTiter-Glo cell proliferation assay; assay type: cell-based; details: Homo sapiens, Colon, K-RAS
H2122 = experiment: CellTiter-Glo cell proliferation assay; assay type: cell-based; details: Homo sapiens, NCI-H2122, Lung(NSCLC), K-RAS
H522 = experiment: CellTiter-Glo cell proliferation assay; assay type: cell-based; details: Homo sapiens, NCI-H522, Lung(NSCLC), WT
MX-1 = experiment: CellTiter-Glo cell proliferation assay; assay type: cell-based; details: Homo sapiens, MX1, Breast, PTEN
Protocol: (§1) Cell Culture Medium: RPMI or DMEM high glucose, 10% Fetal Bovine Serum, 2 mM L-Glutamine, P/S. Incubate O/N (overnight) at 37° C., 5% CO2.
(§2) Drug Addition to Cells, Cell Plate (1:10 dilution): Add 6 μl of media+compound directly to cells (54 μl of media on the cells already). Incubate 3 days at 37° C., 5% CO2 in an incubator that will not be opened often.
(§3) Day 5—Develop Plates, Thaw Cell Titer Glo Buffer at room temperature: Remove Cell Plates from 37° C. and equilibrate to room temperature for about 30 minutes. Add Cell Titer-Glo® Buffer to Cell Titer-Glo® Substrate (bottle to bottle). Add 30 μl Cell Titer-Glo® Reagent (Promega cat.#G7572) to each well of cells. Place on plate shaker for about 30 minutes. Read luminescence on Analyst HT Plate Reader (half second per well).

LXFL-529 = experiment: CellTiter-Glo cell proliferation assay; assay type: cell-based; details: Homo sapiens, Lung(NSCLC), Helical-HET.542E > K
MDA-MB-453 = experiment: CellTiter-Glo cell proliferation assay; assay type: cell-based; details: Homo sapiens, Breast, Kinase-HET.1047H > R, HET.350D > N
A375 = experiment: CellTiter-Glo cell proliferation assay; assay type: cell-based; details: Homo sapiens, A-375, Melanoma, B-Raf
H647 = experiment: CellTiter-Glo cell proliferation assay; assay type: cell-based; details: Homo sapiens, NCI-H647, Lung(NSCLC), K-RAS
FUOV1 = experiment: CellTiter-Glo cell proliferation assay; assay type: cell-based; details: Ovarian, WT
Protocol: as §1, §2, §3

KM12 = experiment: CellTiter-Glo cell proliferation assay; assay type: cell-based; details: Homo sapiens, Colon, PTEN
HCC1954 = experiment: CellTiter-Glo cell proliferation assay; assay type: cell-based; details: Homo sapiens, Breast, Kinase-HOM.1047H > L
Protocol: as §1, §2, §3

INK-134 = experiment: CellTiter-Glo cell proliferation assay; assay type: cell-based; details: Glioma, Helical-HET.545E > D, HET.1043M > I
HCT116 = experiment: CellTiter-Glo cell proliferation assay; assay type: cell-based; details: Homo sapiens, HCT-116, Colon, KRAS/HET.1047H > R
PI3K alpha E545K mutant = PI3K alpha E545K mutant (Homo sapiens, UniProt P42336, E545K); details: relative to PI3K alpha
Protocol: After an incubation time of 30 minutes at room temperature, the reactions were stopped by the addition of GRP-1 and PIP3-TAMRA probe (Echelon-Inc., Salt Lake City, Utah.) 100 nM and 5 nM final concentrations respectively. Read with standard cut-off filters for the rhodamine fluorophore (λex=530 nm; λem=590 nm) in 384-well black low volume Proxiplates® (PerkinElmer, Wellesley, Mass.) Fluorescence polarization values were plotted as a function of the protein concentration. EC50 values were obtained by fitting the data to a four-parameter equation using KaleidaGraph® software (Synergy software, Reading, Pa.). This experiment also establishes the appropriate protein concentration to use in subsequent competition experiments with inhibitors.
After an incubation time of 30 minutes at room temperature, the reactions were stopped by the addition of GRP-1 and PIP3-TAMRA probe (Echelon-Inc., Salt Lake City, Utah.) 100 nM and 5 nM final concentrations respectively.
The compound was serially diluted in 100% DMSO. The kinase reaction was incubated for 1 h at room temperature, and the reaction was terminated by the addition of PBS. IC50 values were subsequently determined using sigmoidal dose-response curve fit (variable slope).

A427 = experiment: CellTiter-Glo cell proliferation assay; assay type: cell-based; details: Homo sapiens, A-427, Lung(NSCLC), K-RAS
H322 = experiment: CellTiter-Glo cell proliferation assay; assay type: cell-based; details: NCI-H322, Lung(NSCLC), WT
HPAC = experiment: CellTiter-Glo cell proliferation assay; assay type: cell-based; details: Homo sapiens, Pancreatic, K-RAS
ABC-1 = experiment: CellTiter-Glo cell proliferation assay; assay type: cell-based; details: Homo sapiens, Lung(NSCLC), WT
[1] = test system: SW48 PIK3CA E545K knock-in mutant subclone; experiment: four day CellTiter-Glo viability assay, SW48 isogenic cell line set; details: Homo sapiens, SW48, 96 h, read-out: Viability EC50
Description: (§4) SW48 parental cells and knock-in mutant subclones harboring common PIK3CA hotspot mutations E545K or H1047R were obtained from Horizon Discovery.

G22 = experiment: CellTiter-Glo cell proliferation assay; assay type: cell-based; details: Glioma, PTEN
T47D = experiment: CellTiter-Glo cell proliferation assay; assay type: cell-based; details: Homo sapiens, Breast, Kinase-HET.1047H > R, HET.350D > N
Protocol: as §1, §2, §3

SW48 parental cells = experiment: four day CellTiter-Glo viability assay, SW48 isogenic cell line set; details: Homo sapiens, SW48, 96 h, read-out: Viability EC50
Description: as §4

cancer cell lines = experiment: cell proliferation assays across cancer cell lines (FIGS. 1-3, 12); assay type: cell-based
Description: EC50 values were established for the experiments.

BT474 = experiment: CellTiter-Glo cell proliferation assay; assay type: cell-based; details: Homo sapiens, BT-474, Breast, HER2 Amplified
HCC-2218 = experiment: CellTiter-Glo cell proliferation assay; assay type: cell-based; details: Homo sapiens, HCC2218, Breast, WT
KNS-62 = experiment: CellTiter-Glo cell proliferation assay; assay type: cell-based; details: Homo sapiens, Lung(NSCLC), K-RAS
G96 = experiment: CellTiter-Glo cell proliferation assay; assay type: cell-based; details: Glioma, WT
H460 = experiment: CellTiter-Glo cell proliferation assay; assay type: cell-based; details: Homo sapiens, NCI-H460, Lung(NSCLC), KRAS/HEt.545E > K
HS 578T-1x2 = experiment: CellTiter-Glo cell proliferation assay; assay type: cell-based; details: Breast, WT
[2] = test system: MCF-7 breast tumor xenografts; experiment: In vivo mouse tumor xenograft efficacy; design: species or system mice
Protocol: Fulvestrant was dosed subcutaneously with 5 mg of drug once a week (qw) for 3 weeks.
Paclitaxel was dosed intravenously every 4 days for 5 cycles with 7.5 mg/kg of drug.
Xenografts were initiated with cancer cells. […] Volume was calculated using the formula: […]

H596 = experiment: CellTiter-Glo cell proliferation assay; assay type: cell-based; details: Homo sapiens, NCI-H596, Lung(NSCLC), Helical-HET.545E > K, HET.997L > P
H417 = experiment: CellTiter-Glo cell proliferation assay; assay type: cell-based; details: Homo sapiens, NCI-H417, Lung(SC), Helical-HET.546Q > K, HOM.391I > M
HOP92 = experiment: CellTiter-Glo cell proliferation assay; assay type: cell-based; details: Homo sapiens, HOP-92, Lung(NSCLC), WT
MO59K = experiment: CellTiter-Glo cell proliferation assay; assay type: cell-based; details: Glioma, PTEN/KRAS
H650 = experiment: CellTiter-Glo cell proliferation assay; assay type: cell-based; details: Homo sapiens, NCI-H650, Lung(NSCLC), K-RAS
H2171 = experiment: CellTiter-Glo cell proliferation assay; assay type: cell-based; details: Homo sapiens, NCI-H2171, Lung(SC), K-RAS
SW1573 = experiment: CellTiter-Glo cell proliferation assay; assay type: cell-based; details: Homo sapiens, Lung(NSCLC), K-RAS
Detroit562 = experiment: CellTiter-Glo cell proliferation assay; assay type: cell-based; details: Homo sapiens, Detroit 562, Head/Neck, Kinase-H1047R

Sequence of PI3K alpha E545K mutant (P42336 whole entry E545K): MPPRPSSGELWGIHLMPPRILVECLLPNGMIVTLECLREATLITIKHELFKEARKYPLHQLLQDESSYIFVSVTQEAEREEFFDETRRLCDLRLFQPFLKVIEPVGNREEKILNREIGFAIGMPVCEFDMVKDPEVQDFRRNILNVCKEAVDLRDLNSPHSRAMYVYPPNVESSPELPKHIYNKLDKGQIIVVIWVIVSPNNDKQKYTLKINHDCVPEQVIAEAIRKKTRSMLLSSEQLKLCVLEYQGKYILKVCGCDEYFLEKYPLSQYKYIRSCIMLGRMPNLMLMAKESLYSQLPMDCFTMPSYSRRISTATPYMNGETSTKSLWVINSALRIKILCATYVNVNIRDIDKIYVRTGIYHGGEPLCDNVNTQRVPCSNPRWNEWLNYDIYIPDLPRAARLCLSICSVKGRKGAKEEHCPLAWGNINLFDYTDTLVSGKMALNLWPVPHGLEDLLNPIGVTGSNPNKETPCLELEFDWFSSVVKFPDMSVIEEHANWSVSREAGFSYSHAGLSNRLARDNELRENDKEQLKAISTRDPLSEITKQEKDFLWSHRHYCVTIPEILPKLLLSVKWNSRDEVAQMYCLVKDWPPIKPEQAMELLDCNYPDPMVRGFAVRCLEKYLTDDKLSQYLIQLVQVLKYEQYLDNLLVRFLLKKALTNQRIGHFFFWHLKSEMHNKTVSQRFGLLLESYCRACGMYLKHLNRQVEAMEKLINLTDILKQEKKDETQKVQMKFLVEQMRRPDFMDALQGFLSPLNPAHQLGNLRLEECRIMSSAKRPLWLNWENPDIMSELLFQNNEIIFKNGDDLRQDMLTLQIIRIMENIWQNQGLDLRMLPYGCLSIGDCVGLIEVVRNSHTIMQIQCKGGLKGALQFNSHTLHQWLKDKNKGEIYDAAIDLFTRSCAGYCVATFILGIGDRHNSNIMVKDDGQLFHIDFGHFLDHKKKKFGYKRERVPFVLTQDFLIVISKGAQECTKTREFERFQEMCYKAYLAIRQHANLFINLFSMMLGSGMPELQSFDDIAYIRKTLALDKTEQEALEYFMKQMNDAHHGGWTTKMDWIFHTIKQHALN
Sequence of PI3K alpha E545K mutant (P27986 whole entry partner): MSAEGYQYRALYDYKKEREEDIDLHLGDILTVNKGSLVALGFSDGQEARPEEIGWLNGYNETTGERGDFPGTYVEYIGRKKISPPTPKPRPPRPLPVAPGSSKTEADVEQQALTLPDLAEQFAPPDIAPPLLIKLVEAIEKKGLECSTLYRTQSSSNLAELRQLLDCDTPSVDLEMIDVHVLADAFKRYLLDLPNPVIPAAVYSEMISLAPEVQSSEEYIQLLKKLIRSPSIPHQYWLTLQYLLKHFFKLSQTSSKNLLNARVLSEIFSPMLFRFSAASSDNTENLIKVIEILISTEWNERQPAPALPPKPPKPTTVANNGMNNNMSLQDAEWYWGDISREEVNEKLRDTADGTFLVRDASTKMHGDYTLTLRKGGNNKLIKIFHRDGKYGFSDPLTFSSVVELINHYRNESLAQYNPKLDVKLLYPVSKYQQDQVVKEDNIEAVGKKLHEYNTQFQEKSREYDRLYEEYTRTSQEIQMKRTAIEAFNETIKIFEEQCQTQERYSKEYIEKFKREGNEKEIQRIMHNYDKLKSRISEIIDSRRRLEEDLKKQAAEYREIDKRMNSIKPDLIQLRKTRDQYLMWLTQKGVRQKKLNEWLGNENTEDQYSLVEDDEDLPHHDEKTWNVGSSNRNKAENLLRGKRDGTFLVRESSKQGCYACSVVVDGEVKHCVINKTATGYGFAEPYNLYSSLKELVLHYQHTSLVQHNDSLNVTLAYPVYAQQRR

`Cc1nc(-c2cn3c(n2)-c2ccc(-c4cnn(C(C)(C)C(N)=O)c4)cc2OCC3)n(C(C)C)n1` [GDC-0032, 2-(4-(2-(1-isopropyl-3-methyl-1H-1,2,4-triazol-5-yl)-5,6-dihydrobenzo[f]imidazo[1,2-d][1,4]oxazepin-9-yl)-1H-pyrazol-1-yl)-2-methylpropanamide] was tested. Which EC50 (888-MEL) did it give?
The EC50 was 10000 nM.

What about the EC50 (HT-29) of the same compound?
Its EC50 is 75 nM.

And the EC50 (H2122)?
Its EC50 is 366 nM.

What about the EC50 (H522) of the same compound?
The EC50 was 10000 nM.

What about the EC50 (MX-1) of the same compound?
The EC50 was 892 nM.

What about the EC50 (LXFL-529) of the same compound?
The EC50 was 57 nM.

What about the EC50 (MDA-MB-453) of the same compound?
Its EC50 is 44 nM.

What about the EC50 (A375) of the same compound?
Its EC50 is 10000 nM.

And the EC50 (H647)?
Its EC50 is 9020 nM.

What about the EC50 (FUOV1) of the same compound?
Its EC50 is 62 nM.

What about the EC50 (KM12) of the same compound?
Its EC50 is 4690 nM.

And the EC50 (HCC1954)?
The EC50 was 102 nM.

And the EC50 (INK-134)?
Its EC50 is 976 nM.

And the EC50 (HCT116)?
The EC50 was 897 nM.

And the “PI3K alpha E545K mutant” value (PI3K alpha E545K mutant)?
The value was 0.4x.

And the EC50 (A427)?
The EC50 was 10000 nM.

And the EC50 (H322)?
Its EC50 is 280 nM.

And the EC50 (HPAC)?
Its EC50 is 645 nM.

What about the EC50 (ABC-1) of the same compound?
The EC50 was 234 nM.

What about the EC50 [1] of the same compound?
The EC50 was 5 nM.

What about the EC50 (G22) of the same compound?
Its EC50 is 6020 nM.

What about the EC50 (T47D) of the same compound?
The EC50 was 45 nM.

What about the EC50 (SW48 parental cells) of the same compound?
Its EC50 is 22 nM.

And the “sensitivity of cancer cell lines with HER2 amplification versus those without HER2 amplification” value (cancer cell lines; EC50, cell proliferation assays)?
Its value is “about 44 times”.

And the “potency against PIK3CA mutant and HER2+ cells (comparison)” value (cancer cell lines; FIGS. 1A, 1B, 2A, 2B)?
The value was “more potent against PIK3CA mutant cells and HER2+ breast cancer cells than GDC-0941”.

And the EC50 (BT474)?
The EC50 was 84 nM.

And the EC50 (HCC-2218)?
The EC50 was 90 nM.

And the EC50 (KNS-62)?
The EC50 was 3560 nM.

What about the EC50 (G96) of the same compound?
Its EC50 is 201 nM.

And the EC50 (H460)?
Its EC50 is 603 nM.

And the EC50 (HS 578T-1x2)?
Its EC50 is 2070 nM.

And the tumor volume change ([2]; PO daily (QD), 21 days, nude mice)?
The tumor volume change was “dose-dependent decrease in tumor volume”.

What about the tumor response ([2]; all doses of GDC-0032 tested, versus vehicle) of the same compound?
The tumor response was “Increased tumor regressions”.

What about the EC50 (H596) of the same compound?
Its EC50 is 58 nM.

What about the EC50 (H417) of the same compound?
Its EC50 is 1280 nM.

And the EC50 (HOP92)?
The EC50 was 1690 nM.

What about the EC50 (MO59K) of the same compound?
Its EC50 is 4980 nM.

And the EC50 (H650)?
Its EC50 is 10000 nM.

What about the EC50 (H2171) of the same compound?
Its EC50 is 1450 nM.

What about the EC50 (SW1573) of the same compound?
The EC50 was 285 nM.

What about the EC50 (Detroit562) of the same compound?
The EC50 was 58 nM.
